Results as given in US9540392B2, “Thienopyrimidines” (BAYER PHARMA AKTIENGESELLSCHAFT, priority 2012, dated 2017).
pIC50: −log10 of the molar value.

Tests used:
[1] = molecular target: T1, human full-length MKNK1 (Homo sapiens, UniProt Q9BUB5, T385D); assay: MKNK1 kinase high ATP assay (TR-FRET); format: biochemical; settings: 2 mM ATP, after preincubation with MKNK1; read-out: MKNK1 IC50 (MKNK1 high ATP)
T1 construct: GST (N); purchased Carna Biosciences 02-145; host or cells: insect cells (baculovirus expression system)
Procedure, shortened: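 Compound was preincubated 15 min at 22° C. with MKNK1 in 50 mM HEPES pH 7.5, 5 mM MgCl2, 1.0 mM DTT, then the reaction ran 30 min at 22° C. with 2 mM ATP and 0.06 μM biotinylated peptide (final).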

[2] = system: eIF4E Ser209 phosphorylation in A549 cells; assay: AlphaScreen SureFire eIF4E Ser209 phosphorylation assay in A549 cells with 20% FCS stimulation; format: cell-based; settings: Homo sapiens, read-out: pEIF4e (IC50 of the EIF4e phosphorylation)
Excerpt: The AlphaScreen SureFire eIF4E Ser209 phoshorylation assay is used to measure the phosphorylation of endogenous eIF4E in cellular lysates. The AlphaScreen SureFire technology allows the detection of phosphorylated proteins in cellular lysates. In this assay, sandwich antibody complexes, which are only formed in the presence of the analyte (p-eIF4E Ser209), are captured by AlphaScreen donor and acceptor beads, bringing them into close proximity. The excitation of the donor bead provokes the release of singlet oxygen molecules that triggers a cascade of energy transfer in the Acceptor beads, resulting in the emission of light at 520-620 nm.
Surefire EIF4e Alphascreen in A549 cells with 20% FCS stimulation
For the assay the AlphaScreen SureFire p-eIF4E Ser209 10K Assay Kit and the AlphaScreen ProteinA Kit (for 10K assay points) both from Perkin Elmer were used. On day one 50.000 A549 cells were plated in a 96-well plate in 100 μL per well in growth medium (DMEM/Hams' F12 with stable Glutamin, 10% FCS) and incubated at 37° C. After attachment of the cells, medium was changed to starving medium (DMEM, 0.1% FCS, without Glucose, with Glutamin, supplemented with 5 g/L Maltose). On day two, test compounds were serially diluted in 50 μL starving medium with a final DMSO concentration of 1% and were added to A549 cells in test plates at a final concentration range from as high 10 μM to as low 10 nM depending on the activities of the tested compounds. Treated cells were incubated at 37° C. for 2 h. 37 ul FCS was added to the wells (=final FCS concentration 20%) for 20 min. Then medium was removed and cells were lysed by adding 50 μL lysis buffer. Plates were then agitated on a plate shaker for 10 min. After 10 min lysis time, 4 μL of the lysate is transferred to a 384 well plate (Proxiplate from Perkin Elmer) and 5 μL Reaction Buffer plus Activation Buffer mix containing AlphaScreen Acceptor beads was added. Plates were sealed with TopSeal-A adhesive film, gently agitated on a plate shaker for 2 hours at room temperature. Afterwards 2 μL Dilution buffer with AlphaScreen Donor beads were added under subdued light and plates were sealed again with TopSeal-A adhesive film and covered with foil. Incubation takes place for further 2 h gently agitation at room temperature. Plates were then measured in an EnVision reader (Perkin Elmer) with the AlphaScreen program. Each data point (compound dilution) was measured as triplicate.
The IC50 values were determined by means of a 4-parameter fit using the company's own software.

T1 sequence (Q9BUB5 1-424 isoform Q9BUB5-2 T344D): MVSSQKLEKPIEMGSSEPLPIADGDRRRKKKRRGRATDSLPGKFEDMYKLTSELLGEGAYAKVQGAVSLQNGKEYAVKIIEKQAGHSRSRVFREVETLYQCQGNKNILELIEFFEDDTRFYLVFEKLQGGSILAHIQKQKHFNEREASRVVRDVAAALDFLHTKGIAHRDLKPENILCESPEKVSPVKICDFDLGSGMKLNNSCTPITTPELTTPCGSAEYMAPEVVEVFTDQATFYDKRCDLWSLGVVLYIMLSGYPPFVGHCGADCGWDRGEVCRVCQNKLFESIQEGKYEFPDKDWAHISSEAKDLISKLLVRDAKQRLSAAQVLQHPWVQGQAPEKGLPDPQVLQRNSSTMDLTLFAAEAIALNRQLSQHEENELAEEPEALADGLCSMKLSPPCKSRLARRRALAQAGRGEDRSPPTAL

| Compound | pIC50 [1] | pIC50 [2] |
| --- | --- | --- |
| COc1cc2[nH]ncc2cc1Nc1ncnc2sc3c(c12)CCC(C(=O)N(C)C)C3 (racemic) [Example 64, (RS)-4-[(6-Methoxy-1H-indazol-5-yl)amino]-N,N-dimethyl-5,6,7,8-tetrahydro[1]benzothieno[2,3-d]pyrimidine-7-carboxamide] | 9.10 | 7.29 |
| COc1cc2[nH]ncc2cc1Nc1ncnc2sc3c(c12)CCC(C(=O)N1CCN(C)CC1)C3 (racemic) [Example 65, (RS)-{4-[(6-Methoxy-1H-indazol-5-yl)amino]-5,6,7,8-tetrahydro[1]benzothieno[2,3-d]pyrimidin-7-yl}(4-methylpiperazin-1-yl)methanone] | 9.30 | 6.46 |
| CC(C)NC(=O)C1CCc2c(sc3ncnc(Nc4cc5cn[nH]c5cc4OC(C)C)c23)C1 (racemic) [Example 72, (RS)—N-(Propan-2-yl)-4-{[6-(propan-2-yloxy)-1H-indazol-5-yl]amino}-5,6,7,8-tetrahydro[1]benzothieno[2,3-d]pyrimidine-7-carboxamide] | 9.22 | 7.12 |
| COc1ccccc1NC(=O)C1CCc2c(sc3ncnc(Nc4ccc5[nH]ncc5c4)c23)C1 (stereo not shown) [Example 12, 4-(1H-indazol-5-ylamino)-N-(2-methoxyphenyl)-5,6,7,8-tetrahydro[1]benzothieno[2,3-d]pyrimidine-7-carboxamide] | 8.10 | 6.60 |
| CCN(C(=O)C1CCc2c(sc3ncnc(Nc4cc5cn[nH]c5cc4OC)c23)C1)C(C)C (stereo not shown) [Example 67, N-Ethyl-4-[(6-Methoxy-1H-indazol-5-yl)amino]-N-(propan-2-yl)-5,6,7,8-tetrahydro[1]benzothieno[2,3-d]pyrimidine-7-carboxamide] | 9.15 |  |
| CCCN(C)C(=O)C1CCc2c(sc3ncnc(Nc4cc5cn[nH]c5cc4OC)c23)C1 (stereo not shown) [Example 68, 4-[(6-Methoxy-1H-indazol-5-yl)amino]-N-methyl-N-propyl-5,6,7,8-tetrahydro[1]benzothieno[2,3-d]pyrimidine-7-carboxamide] | 9.15 |  |

Continued by rising pIC50 [1], values first:

| pIC50 [1] | pIC50 [2] | Compound |
| --- | --- | --- |
| 8.30 | 6.43 | Cc1cccc(NC(=O)C2CCc3c(sc4ncnc(Nc5ccc6[nH]ncc6c5)c34)C2)c1 (stereo not shown) [Example 16, 4-(1H-indazol-5-ylamino)-N-(3-methylphenyl)-5,6,7,8-tetrahydro[1]benzothieno[2,3-d]pyrimidine-7-carboxamide] |
| 8.52 | 6.77 | O=C(NCc1cccc(C(F)(F)F)c1)C1CCc2c(sc3ncnc(Nc4ccc5[nH]ncc5c4)c23)C1 (stereo not shown) [Example 9, 4-(1H-indazol-5-ylamino)-N-[3-(trifluoromethyl)benzyl]-5,6,7,8-tetrahydro[1]benzothieno[2,3-d]pyrimidine-7-carboxamide] |
| 8.57 | 6.66 | Cc1ccccc1NC(=O)C1CCc2c(sc3ncnc(Nc4ccc5[nH]ncc5c4)c23)C1 (racemic) [Example 75, (RS)-4-(1H-Indazol-5-ylamino)-N-(2-methylphenyl)-5,6,7,8-tetrahydro[1]benzothieno[2,3-d]pyrimidine-7-carboxamide] |
| 8.80 | 7.21 | COc1cc2[nH]ncc2cc1Nc1ncnc2sc3c(c12)CCC(C(=O)NC(C)C)C3 (racemic) [Example 66, (RS)-4-[(6-Methoxy-1H-indazol-5-yl)amino]-N-(propan-2-yl)-5,6,7,8-tetrahydro[1]benzothieno[2,3-d]pyrimidine-7-carboxamide] |
| 9.30 | 7.49 | CC(C)Oc1cc2[nH]ncc2cc1Nc1ncnc2sc3c(c12)CCC(C(=O)N1CCN(C)CC1)C3 (racemic) [Example 71, (RS)-(4-Methylpiperazin-1-yl)(4-{[6-(propan-2-yloxy)-1H-indazol-5-yl]amino}-5,6,7,8-tetrahydro[1]benzothieno[2,3-d]pyrimidin-7-yl)methanone] |
| 9.40 | 7.05 | CC(C)Oc1cc2[nH]ncc2cc1Nc1ncnc2sc3c(c12)CCC(C(=O)N(C)C)C3 (racemic) [Example 70, (RS)—N,N-Dimethyl-4-{[6-(propan-2-yloxy)-1H-indazol-5-yl]amino}-5,6,7,8-tetrahydro[1]benzothieno[2,3-d]pyrimidine-7-carboxamide] |
